From patent US9556148B2, “N-cyanomethylamides as inhibitors of janus kinase” (CADILA HEALTHCARE LIMITED, priority 2013, dated 2017)

How the values were obtained:
[1] = target: recombinant purified human JAK3 (Homo sapiens (Human), UniProt P52333); assay: in vitro JAK kinase assay on ADP Glo platform, JAK3; type: biochemical; settings: 50 μM ATP, 1 hr at room temperature; read-out: JAK-3 IC50
Procedure: (§1) NCEs were screened using in vitro JAK (1, 2 and 3) kinase assay on ADP Glo platform (Promega). Fixed amount of recombinant purified human JAK (25 ng of JAK1 and 10 ng of JAK2 and JAK3 per reaction, from Life Technologies Ltd) were incubated with increasing concentration of NCEs in 1× kinase reaction buffer (40 mM Tris-Cl, pH7.5, 20 mM MgCl2, 0.1 mg/ml BSA and 50 μM DTT). Enzymatic reaction was initiated by adding a substrate cocktail containing 50 μM of ATP (final concentration) and 5 μg for JAK1 and 2.5 μg for JAK2 and JAK3 of polyGln4Tyr1 (Signal Chem) in total 25 μl of reaction in 96 well plate. The reaction was incubated at room temperature for 1 hr.
(§2) After 1 hr of incubation equal volume (25 μl per reaction) of ADP Glo was added and incubated at room temperature for 40 min.
(§3) This was followed by addition of kinase detection reagent (50 μl per reaction) and incubation at room temperature for 30 min. Finally, plate was read for luminescence at an integration time of 500 millisecond per well.
(§4) Data were plotted taking Enzyme with no inhibitor set as the 100% kinase activity. IC50 values were calculated using Graph Pad Prism software.

[2] = test system: PGPS arthritis, PAW inflammation; assay: Peptidogylcan Polysaccharide Polymers (PGPS) arthritis; type: in vivo, Sprague dawley rats; settings: rats, values for day 16
Procedure: Female Sprague dawley rats were primed with an intra-articular injection of 20 μl of PGPS at 0.5 mg/ml of rhamnose in the right ankle. At 2 weeks the ankle diameters were measured with plethysmometer and rats assigned to groups of similar distribution of initial joint diameters. Rats then received their first dose of compound followed 1 h later by an i.v. injection of 0.5 ml of PGPS (0.5 mg/ml of rhamnose) in the tail vein. Compounds were dosed at 10 mg/kg and ankle diameters measured for 3 days [i.e. day 15, 16, 17]. Values are given for day 16.

[3] = target: recombinant purified human JAK1 (Homo sapiens (Human), UniProt P23458); assay: in vitro JAK kinase assay on ADP Glo platform, JAK1; type: biochemical; settings: 50 μM ATP, 1 hr at room temperature
Procedure: as §1, §2, §3, §4

[4] = target: recombinant purified human JAK2 (Homo sapiens (Human), UniProt O60674); assay: in vitro JAK kinase assay on ADP Glo platform, JAK2; type: biochemical; settings: 50 μM ATP, 1 hr at room temperature; read-out: JAK-2 IC50
Procedure: as §1, §2, §3, §4

Chain of recombinant purified human JAK3 (P52333 whole entry): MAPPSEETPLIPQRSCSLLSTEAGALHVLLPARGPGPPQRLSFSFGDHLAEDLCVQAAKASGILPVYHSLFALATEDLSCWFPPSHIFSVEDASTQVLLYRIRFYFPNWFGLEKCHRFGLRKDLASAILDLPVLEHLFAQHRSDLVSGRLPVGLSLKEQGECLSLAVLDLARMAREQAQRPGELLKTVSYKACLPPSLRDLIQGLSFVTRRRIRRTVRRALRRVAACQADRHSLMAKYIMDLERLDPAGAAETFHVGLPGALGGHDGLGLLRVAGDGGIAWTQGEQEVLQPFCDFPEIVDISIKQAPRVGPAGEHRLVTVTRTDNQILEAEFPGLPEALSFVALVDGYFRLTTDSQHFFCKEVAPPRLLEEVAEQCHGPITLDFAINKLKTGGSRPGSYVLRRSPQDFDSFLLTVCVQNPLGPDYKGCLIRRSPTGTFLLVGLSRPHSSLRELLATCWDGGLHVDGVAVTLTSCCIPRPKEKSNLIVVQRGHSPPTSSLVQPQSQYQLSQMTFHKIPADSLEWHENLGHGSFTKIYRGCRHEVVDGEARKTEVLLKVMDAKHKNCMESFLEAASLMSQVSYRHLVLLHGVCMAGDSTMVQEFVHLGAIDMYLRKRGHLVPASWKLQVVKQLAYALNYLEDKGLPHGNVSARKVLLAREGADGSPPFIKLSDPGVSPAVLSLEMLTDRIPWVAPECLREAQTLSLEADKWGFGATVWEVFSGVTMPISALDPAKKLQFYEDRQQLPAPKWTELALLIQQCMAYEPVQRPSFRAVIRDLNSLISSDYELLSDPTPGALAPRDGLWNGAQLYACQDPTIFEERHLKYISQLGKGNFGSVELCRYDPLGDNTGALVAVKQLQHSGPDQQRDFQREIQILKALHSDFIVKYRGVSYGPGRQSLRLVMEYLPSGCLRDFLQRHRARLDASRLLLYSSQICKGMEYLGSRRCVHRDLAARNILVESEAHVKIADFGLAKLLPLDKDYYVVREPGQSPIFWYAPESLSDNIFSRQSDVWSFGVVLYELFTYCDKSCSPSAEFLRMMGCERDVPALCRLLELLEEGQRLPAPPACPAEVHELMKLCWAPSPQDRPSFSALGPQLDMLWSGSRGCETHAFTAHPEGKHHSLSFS
Chain of recombinant purified human JAK1 (P23458 whole entry): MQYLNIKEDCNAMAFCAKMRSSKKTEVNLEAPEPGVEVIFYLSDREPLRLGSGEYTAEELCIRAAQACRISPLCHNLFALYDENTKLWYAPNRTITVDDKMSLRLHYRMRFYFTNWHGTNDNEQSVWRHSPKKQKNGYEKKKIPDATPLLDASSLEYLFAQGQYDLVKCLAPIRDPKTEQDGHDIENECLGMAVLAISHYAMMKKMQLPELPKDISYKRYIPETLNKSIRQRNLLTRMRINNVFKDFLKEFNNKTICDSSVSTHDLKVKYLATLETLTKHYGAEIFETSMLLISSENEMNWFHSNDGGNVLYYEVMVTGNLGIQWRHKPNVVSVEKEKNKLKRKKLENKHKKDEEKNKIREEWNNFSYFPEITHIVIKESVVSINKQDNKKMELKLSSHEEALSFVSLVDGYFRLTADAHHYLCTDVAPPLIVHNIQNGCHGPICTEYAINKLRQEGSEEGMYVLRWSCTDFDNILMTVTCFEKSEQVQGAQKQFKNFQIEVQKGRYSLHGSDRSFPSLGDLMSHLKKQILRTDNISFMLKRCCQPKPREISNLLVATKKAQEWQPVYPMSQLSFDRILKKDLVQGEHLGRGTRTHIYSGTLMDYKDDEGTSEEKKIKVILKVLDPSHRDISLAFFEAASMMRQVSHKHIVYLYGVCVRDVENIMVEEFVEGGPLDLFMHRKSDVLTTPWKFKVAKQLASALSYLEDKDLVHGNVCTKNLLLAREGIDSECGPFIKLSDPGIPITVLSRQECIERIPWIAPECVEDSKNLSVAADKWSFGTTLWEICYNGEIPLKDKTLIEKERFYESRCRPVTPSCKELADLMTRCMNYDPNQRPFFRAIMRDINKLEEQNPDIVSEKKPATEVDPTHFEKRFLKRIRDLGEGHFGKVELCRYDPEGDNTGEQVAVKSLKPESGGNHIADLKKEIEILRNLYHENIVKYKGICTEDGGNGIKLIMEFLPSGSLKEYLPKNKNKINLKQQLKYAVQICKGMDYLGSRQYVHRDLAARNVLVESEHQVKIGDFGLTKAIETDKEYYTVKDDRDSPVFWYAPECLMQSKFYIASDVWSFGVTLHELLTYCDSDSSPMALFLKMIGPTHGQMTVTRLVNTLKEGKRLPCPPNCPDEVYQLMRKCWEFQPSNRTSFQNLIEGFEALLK
Chain of recombinant purified human JAK2 (O60674 whole entry): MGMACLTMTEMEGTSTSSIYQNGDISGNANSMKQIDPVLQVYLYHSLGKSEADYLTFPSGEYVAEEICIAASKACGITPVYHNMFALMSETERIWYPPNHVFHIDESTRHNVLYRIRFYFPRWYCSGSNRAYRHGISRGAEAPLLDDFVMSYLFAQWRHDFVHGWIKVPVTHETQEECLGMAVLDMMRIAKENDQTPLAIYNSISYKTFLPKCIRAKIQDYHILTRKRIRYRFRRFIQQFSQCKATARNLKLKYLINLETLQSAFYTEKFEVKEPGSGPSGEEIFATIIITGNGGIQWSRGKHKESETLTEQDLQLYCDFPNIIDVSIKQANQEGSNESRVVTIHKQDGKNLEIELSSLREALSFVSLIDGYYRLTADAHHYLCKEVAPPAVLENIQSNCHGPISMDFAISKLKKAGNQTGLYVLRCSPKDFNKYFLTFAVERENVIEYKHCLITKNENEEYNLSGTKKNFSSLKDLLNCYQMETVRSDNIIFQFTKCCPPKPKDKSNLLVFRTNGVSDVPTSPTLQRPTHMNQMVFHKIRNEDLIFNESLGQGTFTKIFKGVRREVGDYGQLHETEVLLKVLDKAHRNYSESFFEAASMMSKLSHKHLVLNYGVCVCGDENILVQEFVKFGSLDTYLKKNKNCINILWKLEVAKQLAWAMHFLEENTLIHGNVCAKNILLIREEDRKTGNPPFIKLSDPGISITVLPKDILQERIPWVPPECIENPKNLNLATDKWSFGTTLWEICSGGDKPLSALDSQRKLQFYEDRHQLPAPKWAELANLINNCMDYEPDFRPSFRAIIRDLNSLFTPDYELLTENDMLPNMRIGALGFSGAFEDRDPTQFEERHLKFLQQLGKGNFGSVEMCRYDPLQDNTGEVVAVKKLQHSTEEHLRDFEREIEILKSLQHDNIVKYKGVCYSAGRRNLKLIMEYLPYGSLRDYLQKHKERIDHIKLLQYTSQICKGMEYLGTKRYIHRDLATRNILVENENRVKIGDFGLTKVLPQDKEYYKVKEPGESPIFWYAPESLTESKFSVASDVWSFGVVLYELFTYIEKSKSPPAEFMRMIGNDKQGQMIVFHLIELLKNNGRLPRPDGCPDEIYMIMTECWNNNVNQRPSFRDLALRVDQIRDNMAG

SMILES	IC50 [1]	IC50 [3]	IC50 [4]	% Reduction in PAW inflammation at dose 10 mg/Kg [2]
N#CCNC(=O)c1ccc(-c2ccnc(Nc3ccc(N4CCC(N5CCOCC5)CC4)cc3)n2)cc1 [Example 3, N-(cyanomethyl)-4-(2-((4-(4-morpholinopiperidin-1-yl)phenyl)amino)pyrimidin-4-yl)benzamide]				56%
N#CCNC(=O)c1ccc(-c2ccnc(Nc3ccc(N4CCC(N5CC6CC(C5)O6)CC4)cc3)n2)cc1 [Example 17, 4-(2-((4-(4-(6-oxa-3-azabicyclo[3.1.1]heptan-3-yl)piperidin-1-yl)phenyl)amino)pyrimidin-4-yl)-N-(cyanomethyl)benzamide]	69 nM	13 nM	8 nM	57%
COc1nnc(C2CCN(c3ccc(Nc4nccc(-c5ccc(C(=O)NCC#N)cc5)n4)cc3)CC2)o1 [Example 31, N-(cyanomethyl)-4-(2-((4-(4-(5-methoxy-1,3,4-oxadiazol-2-yl)piperidin-1-yl)phenyl)amino)pyrimidin-4-yl)benzamide]	74 nM	20 nM	17 nM	
N#CCNC(=O)c1ccc(-c2ccnc(Nc3ccc(N4CCN(C5=NCCN5)CC4)cc3)n2)cc1 [Example 33, N-(cyanomethyl)-4-(2-((4-(4-(4,5-dihydro-1H-imidazol-2-yl)piperazin-1-yl)phenyl)amino)pyrimidin-4-yl)benzamide]	54 nM	20 nM	11 nM	
Cc1nnc(N2CCN(c3ccc(Nc4nccc(-c5ccc(C(=O)NCC#N)cc5)n4)cc3)CC2)o1 [Example 36, N-(cyanomethyl)-4-(2-((4-(4-(5-methyl-1,3,4-oxadiazol-2-yl)piperazin-1-yl)phenyl)amino)pyrimidin-4-yl)benzamide]	46.9 nM	9.2 nM		
CC(=O)N1C2CC1CN(C1CCN(c3ccc(Nc4nccc(-c5ccc(C(=O)NCC#N)cc5)n4)cc3)CC1)C2 [Example 39, 4-(2-((4-(4-(6-acetyl-3,6-diazabicyclo[3.1.1]heptan-3-yl)piperidin-1-yl)phenyl)amino)pyrimidin-4-yl)-N-(cyanomethyl)benzamide]	50.7 nM	8.8 nM		
Cc1cnc(Nc2ccc(N3CCC(N4CCOCC4)CC3)cc2)nc1-c1ccc(C(=O)NCC#N)cc1 [Example 40, N-(cyanomethyl)-4-(5-methyl-2-((4-(4-morpholinopiperidin-1-yl)phenyl)amino)pyrimidin-4-yl)benzamide]	32 nM	1.3 nM	2.8 nM	
Cc1cnc(Nc2ccc(N3CCC(N4CCCC4=O)CC3)cc2)nc1-c1ccc(C(=O)NCC#N)cc1 [Example 41, N-(cyanomethyl)-4-(5-methyl-2-((4-(4-(2-oxopyrrolidin-1-yl)piperidin-1-yl)phenyl)amino)pyrimidin-4-yl)benzamide]	10.7 nM	0.6 nM	2.5 nM	
Cc1cnc(Nc2ccc(N3CCC(N4CCC5(CCCO5)CC4)CC3)cc2)nc1-c1ccc(C(=O)NCC#N)cc1 [Example 42, 4-(2-((4-(4-(1-oxa-8-azaspiro[4.5]decan-8-yl)piperidin-1-yl)phenyl)amino)-5-methylpyrimidin-4-yl)-N-(cyanomethyl)benzamide]	59 nM	2.5 nM	4.3 nM	
Cc1nnc(C2CCN(c3ccc(Nc4ncc(C)c(-c5ccc(C(=O)NCC#N)cc5)n4)cc3)CC2)o1 [Example 43, N-(cyanomethyl)-4-(5-methyl-2-((4-(4-(5-methyl-1,3,4-oxadiazol-2-yl)piperidin-1-yl)phenyl)amino)pyrimidin-4-yl)benzamide]	52.3 nM	1.2 nM	2.6 nM	

More lines, main results first:

IC50 [1]	IC50 [3]	IC50 [4]	SMILES	% Reduction in PAW inflammation at dose 10 mg/Kg [2]
72 nM	12.1 nM		N#CCNC(=O)c1ccc(-c2ccnc(Nc3ccc(N4CCC(N5CCCC5=O)CC4)cc3)n2)cc1 [Example 1, N-(cyanomethyl)-4-(2-((4-(4-(2-oxopyrrolidin-1-yl)piperidin-1-yl)phenyl)amino)pyrimidin-4-yl)benzamide]	51%
51 nM	5.1 nM	4 nM	N#CCNC(=O)c1ccc(-c2ccnc(Nc3ccc(N4CCC(N5CCCS5(=O)=O)CC4)cc3)n2)cc1 [Example 2, N-(cyanomethyl)-4-(2-((4-(4-(1,1-dioxidoisothiazolidin-2-yl)piperidin-1-yl)phenyl)amino)pyrimidin-4-yl)benzamide]	
66 nM	21 nM	17 nM	N#CCNC(=O)c1ccc(-c2ccnc(Nc3ccc(N4CCC(n5cncn5)CC4)cc3)n2)cc1 [Example 4, 4-(2-((4-(4-(1H-1,2,4-triazol-1-yl)piperidin-1-yl)phenyl)amino)pyrimidin-4-yl)-N-(cyanomethyl)benzamide]	52%
155 nM	16 nM	19 nM	N#CCNC(=O)c1ccc(-c2ccnc(Nc3ccc(N4CCC(N5CCCC5)C4)cc3)n2)cc1 (centres unmarked) [Example 6, 4-(2-((4-([1,3′-Bipyrrolidin]-1′-yl)phenyl)amino)pyrimidin-4-yl)-N-(cyanomethyl)benzamide]	
62 nM	14 nM	12 nM	N#CCNC(=O)c1ccc(-c2ccnc(Nc3ccc(N4CCN(C5CCS(=O)(=O)CC5)CC4)cc3)n2)cc1 [Example 7, N-(cyanomethyl)-4-(2-((4-(4-(1,1-dioxidotetrahydro-2H-thiopyran-4-yl)piperazin-1-yl)phenyl)amino)pyrimidin-4-yl)benzamide]	
40 nM	14 nM	8 nM	N#CCNC(=O)c1ccc(-c2ccnc(Nc3ccc(N4CCN(C5CCS(=O)(=O)C5)CC4)cc3)n2)cc1 (centres unmarked) [Example 9, N-(cyanomethyl)-4-(2-((4-(4-(1,1-dioxidotetrahydrothiophen-3-yl)piperazin-1-yl)phenyl)amino)pyrimidin-4-yl)benzamide]	
78 nM	25 nM		N#CCNC(=O)c1ccc(-c2ccnc(Nc3ccc(N4CCC(N5CCOC5=O)CC4)cc3)n2)cc1 [Example 12, N-(cyanomethyl)-4-(2-((4-(4-(2-oxooxazolidin-3-yl)piperidin-1-yl)phenyl)amino)pyrimidin-4-yl)benzamide]	
88 nM	16 nM	11 nM	N#CCNC(=O)c1ccc(-c2ccnc(Nc3ccc(N4CCN(C5CCOCC5)CC4)cc3)n2)cc1 [Example 15, N-(cyanomethyl)-4-(2-((4-(4-(tetrahydro-2H-pyran-4-yl)piperazin-1-yl)phenyl)amino)pyrimidin-4-yl)benzamide]	
50 nM	9 nM	11 nM	N#CCNC(=O)c1ccc(-c2ccnc(Nc3ccc(N4CCC(N5CCNC5=O)CC4)cc3)n2)cc1 [Example 18, N-(cyanomethyl)-4-(2-((4-(4-(2-oxoimidazolidin-1-yl)piperidin-1-yl)phenyl)amino)pyrimidin-4-yl)benzamide]	
40 nM	10 nM	7 nM	N#CCNC(=O)c1ccc(-c2ccnc(Nc3ccc(N4CCC(c5nnco5)CC4)cc3)n2)cc1 [Example 19, 4-(2-((4-(4-(1,3,4-oxadiazol-2-yl)piperidin-1-yl)phenyl)amino)pyrimidin-4-yl)-N-(cyanomethyl)benzamide]	
	12 nM		Cc1nnc(C2CCN(c3ccc(Nc4nccc(-c5ccc(C(=O)NCC#N)cc5)n4)cc3)CC2)o1 [Example 25, N-(cyanomethyl)-4-(2-((4-(4-(5-methyl-1,3,4-oxadiazol-2-yl)piperidin-1-yl)phenyl)amino)pyrimidin-4-yl)benzamide]	63%
49 nM	10 nM	5 nM	N#CCNC(=O)c1ccc(-c2ccnc(Nc3ccc(N4CCC(N5CC6OCCOC6C5)CC4)cc3)n2)cc1 (centres unmarked) [Example 27, N-(cyanomethyl)-4-(2-((4-(4-(tetrahydro-2H-[1,4]dioxino[2,3-c]pyrrol-6(3H)-yl)piperidin-1-yl)phenyl)amino)pyrimidin-4-yl)benzamide]	
55 nM	11 nM	6 nM	N#CCNC(=O)c1ccc(-c2ccnc(Nc3ccc(N4CCC(N5CCC6(CCC(=O)O6)CC5)CC4)cc3)n2)cc1 [Example 28, N-(cyanomethyl)-4-(2-((4-(4-(2-oxo-1-oxa-8-azaspiro[4.5]decan-8-yl)piperidin-1-yl)phenyl)amino)pyrimidin-4-yl)benzamide]	
138 nM	15 nM	21 nM	N#CCNC(=O)c1ccc(-c2ccnc(Nc3ccc(N4CCC(N5CC6OCCOC6C5)C4)cc3)n2)cc1 (centres unmarked) [Example 35, N-(cyanomethyl)-4-(2-((4-(3-(tetrahydro-2H-[1,4]dioxino[2,3-c]pyrrol-6(3H)-yl)pyrrolidin-1-yl)phenyl)amino)pyrimidin-4-yl)benzamide]	
